Assay [1] relates to HCT116 MTAP null cells. Kind of assay: HCT116 MTAP null cell proliferation / viability (CellTiter-Glo, 6 days). Format: cell-based. As to conditions: HCT116-MTAP null, 144 h, HCT116 MTAP null cells, 6 days, CellTiter-Glo; read-out: HCT-116 MTAP null IC50. The gist of the method:
(§1)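 Viability read by CellTiter-Glo after 6-day compound exposure of MTAP-null and wild-type HCT116 cells grown in RPMI 1640 with 10% FBS. Dosing used 1:3 steps from 1 or 10 μM (8-9 points) or 1:2 steps from 10 or 50 μM (22 points); IC50 taken where fitted curve crosses 50% of control.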

For assay [2], the system named is HCT116 WT cells. Kind of assay: HCT116 WT cell proliferation / viability (CellTiter-Glo, 6 days). Format: cell-based. The settings on record: Homo sapiens, HCT-116, 144 h, HCT116 WT cells, 6 days, CellTiter-Glo; read-out: HCT-116 WT IC50. In a few lines: as §1

`C[C@H]1OCc2c1c(N)nc1ccc(C(=O)N(Cc3ccc(C(F)(F)F)cn3)c3cnn(C)c3)cc21` [Example 467, (3R)-4-amino-3-methyl-N-(1-methyl-1H-pyrazol-4-yl)-N-((5-(trifluoromethyl)-2-pyridinyl)methyl)-1,3-dihydrofuro[3,4-c]quinoline-8-carboxamide]: the IC50 stood at 14 nM in assay [1] and 0.332 µM in assay [2].
With `CN(Cc1ccc(C2CC2)cn1)C(=O)c1ccc2nc(N)c3c(c2c1)COC3` [Example 323, 4-amino-N-((5-cyclopropyl-2-pyridinyl)methyl)-N-methyl-1,3-dihydrofuro[3,4-c]quinoline-8-carboxamide], the figures for the 50% inhibitory concentration (IC50) in assay [1] and in assay [2] were 358 nM and 15 µM, respectively.
Turning to `Cn1ncc2c(N)nc3cc(Cl)c(C(=O)N(Cc4ccc(C(F)(F)F)cn4)C4CCC4)cc3c21` [Example 798, 4-amino-7-chloro-N-cyclobutyl-1-methyl-N-((5-(trifluoromethyl)-2-pyridinyl)methyl)-1H-pyrazolo[4,3-c]quinoline-8-carboxamide], the IC50 in assay [1] worked out at 10 nM; in assay [2], 0.152 µM.
With `C[C@H](c1ncccn1)N(Cc1ccc(C#N)cn1)C(=O)c1ccc2nc(N)c3ccccc3c2c1` [Example 630, 6-amino-N-((5-cyano-2-pyridinyl)methyl)-N-((1R)-1-(2-pyrimidinyl)ethyl)-2-phenanthridinecarboxamide], the concentration for half-maximal inhibition (IC50) in assay [1] turned out to be 19 nM; in assay [2], 0.408 µM.
On the same counts, the results for `CN(Cc1ccc(C(F)(F)F)cc1)C(=O)c1cc2c(cc1Cl)nc(N)c1cnn(C)c12` [Example 558, 4-amino-7-chloro-N,1-dimethyl-N-(4-(trifluoromethyl)benzyl)-1H-pyrazolo[4,3-c]quinoline-8-carboxamide] are 19 nM and 0.421 µM.
On the same counts, the results for `CC1OCc2c1c(N)nc1ccc(C(=O)N(Cc3ccc(C(F)(F)F)cn3)C3CCCC3C#N)cc21` (stereo not drawn) [Example 897, 4-amino-N-(2-cyanocyclopentyl)-3-methyl-N-((5-(trifluoromethyl)pyridin-2-yl)methyl)-1,3-dihydrofuro[3,4-c]quinoline-8-carboxamide] are 24 nM and 0.11 µM.
Consider `CCN(C(=O)c1cc2c3c(c(N)nc2cn1)COC3)[C@@H](C)c1ccc(C(F)(F)F)cn1` (single isomer, unassigned) [Example 824], for which the 50% inhibitory concentration (IC50) in assay [1] came to 2390 nM; in assay [2], 26.3 µM.
In the same order, the values of `CCOc1ccc(CN(CC)C(=O)c2cc3c4c(c(N)nc3cc2F)COC4)nn1` [Example 747, 4-amino-N-((6-ethoxy-3-pyridazinyl)methyl)-N-ethyl-7-fluoro-1,3-dihydrofuro[3,4-c]quinoline-8-carboxamide] are 161 nM and 5.09 µM.
For the compound `C[C@H]1OCc2c1c(N)nc1ccc(C(=O)N(Cc3ccc(C#N)cn3)CC3CC3)cc21` [Example 331, (3R)-4-amino-N-((5-cyano-2-pyridinyl)methyl)-N-(cyclopropylmethyl)-3-methyl-1,3-dihydrofuro[3,4-c]quinoline-8-carboxamide], the IC50 in assay [1] is 28 nM; in assay [2] it was 2.3 µM.
Turning to `C[C@H](c1ncn(C)n1)N(Cc1ccc(C(F)F)cn1)C(=O)c1ccc2nc(N)c3c(c2c1)COC3` [Example 662, 4-amino-N-((5-(difluoromethyl)-2-pyridinyl)methyl)-N-((1R)-1-(1-methyl-1H-1,2,4-triazol-3-yl)ethyl)-1,3-dihydrofuro[3,4-c]quinoline-8-carboxamide], the half-maximal inhibitory concentration (IC50) in assay [1] is 29 nM; in assay [2], 0.29 µM.
On the same counts, the results for `CC(c1ccc(C(F)(F)F)cn1)N(C)C(=O)c1ccc2nc(N)c3c(c2c1)COC3` (racemic) [Example 697, 4-amino-N-methyl-N-((1R)-1-(5-(trifluoromethyl)-2-pyridinyl)ethyl)-1,3-dihydrofuro[3,4-c]quinoline-8-carboxamide and 4-amino-N-methyl-N-((1S)-1-(5-(trifluoromethyl)-2-pyridinyl)ethyl)-1,3-dihydrofuro[3,4-c]quinoline-8-carboxamide] are 121 nM and 4.43 µM.
Consider `CC(C)N(C(=O)c1cc2c3c(c(N)nc2cc1Cl)COC3)[C@@H](C)c1ccc(C(F)(F)F)cn1` (single isomer, unassigned) [Example 846], for which the half-inhibitory concentration (IC50) came out at 212 nM in assay [1] and 3.94 µM in assay [2].
On to `CN(Cc1ccc(C(F)(F)F)nn1)C(=O)c1cc2c(cc1F)nc(N)c1cnn(C)c12` [Example 571, 4-amino-7-fluoro-N,1-dimethyl-N-((6-(trifluoromethyl)-3-pyridazinyl)methyl)-1H-pyrazolo[4,3-c]quinoline-8-carboxamide], for which the 50% inhibitory concentration (IC50) stood at 71 nM in assay [1] and 4.93 µM in assay [2].
For the compound `C[C@H](c1cnc(C(F)(F)F)cn1)N(C)C(=O)c1ccc2nc(N)c3c(c2c1)COC3` [Example 774, 4-amino-N-methyl-N-((1R)-1-(5-(trifluoromethyl)-2-pyrazinyl)ethyl)-1,3-dihydrofuro[3,4-c]quinoline-8-carboxamide], the half-maximal inhibitory concentration (IC50) in assay [1] is 736 nM; in assay [2], 40.6 µM.
Regarding `Cn1cc(N(Cc2ccc(C(F)(F)F)cn2)C(=O)c2cc3c4c(c(N)nc3cc2F)COC4)cn1` [Example 714, 4-amino-7-fluoro-N-(1-methyl-1H-pyrazol-4-yl)-N-((5-(trifluoromethyl)-2-pyridinyl)methyl)-1,3-dihydrofuro[3,4-c]quinoline-8-carboxamide], the figures for the IC50 in assay [1] and in assay [2] were 8 nM and 0.124 µM, respectively.
Consider `CCN(Cc1ccc(C(F)(F)F)nn1)C(=O)c1ccc2nc(N)c3c(c2c1)COC3` [Example 695, 4-amino-N-ethyl-N-((6-(trifluoromethyl)-3-pyridazinyl)methyl)-1,3-dihydrofuro[3,4-c]quinoline-8-carboxamide], for which the 50% inhibitory concentration (IC50) in assay [1] is 210 nM; in assay [2] it was 4.99 µM.
Take `CC(C)N(Cc1ccc(C2CC2)cn1)C(=O)c1cc2c(cc1F)nc(N)c1c2cnn1C` [Example 522, 4-amino-N-((5-cyclopropyl-2-pyridinyl)methyl)-7-fluoro-3-methyl-N-(2-propanyl)-3H-pyrazolo[3,4-c]quinoline-8-carboxamide]: the figures for the 50% inhibitory concentration (IC50) in assay [1] and in assay [2] were 14 nM and 0.38 µM, respectively.
For the compound `C[C@@H]1OCc2c1c(N)nc1cnc(C(=O)N(Cc3ccc(C(F)(F)F)cn3)C34CC(C3)C4)cc21` [Example 309, (3S)-4-amino-N-(bicyclo[1.1.1]pentan-1-yl)-3-methyl-N-((5-(trifluoromethyl)-2-pyridinyl)methyl)-1,3-dihydrofuro[3,4-c][1,7]naphthyridine-8-carboxamide], the figures for the IC50 in assay [1] and in assay [2] were 4000 nM and greater than 10 µM, respectively.
As to `CCN(C(=O)c1ccc2nc(N)c3c(c2c1)CO[C@@H]3C)[C@H](C)c1ccc(C(F)(F)F)cn1` [Example 777, (3R)-4-amino-N-ethyl-3-methyl-N-((1R)-1-(5-(trifluoromethyl)-2-pyridinyl)ethyl)-1,3-dihydrofuro[3,4-c]quinoline-8-carboxamide], the half-inhibitory concentration (IC50) is 25 nM in assay [1] and 1.38 µM in assay [2].
In the same order, the values of `CC(c1ncccn1)N(Cc1ccc(C(F)(F)F)cn1)C(=O)c1ccc2nc(N)c3c(c2c1)COC3` (racemic) [Example 640, 4-amino-N-((1R)-1-(2-pyrimidinyl)ethyl)-N-((5-(trifluoromethyl)-2-pyridinyl)methyl)-1,3-dihydrofuro[3,4-c]quinoline-8-carboxamide and 4-amino-N-((1S)-1-(2-pyrimidinyl)ethyl)-N-((5-(trifluoromethyl)-2-pyridinyl)methyl)-1,3-dihydrofuro[3,4-c]quinoline-8-carboxamide] are 13 nM and 0.11 µM.
In the case of `CCN(Cc1ccc(OC(F)F)nn1)C(=O)c1ccc2nc(N)c3c(c2c1)CO[C@@H]3C` [Example 726, (3R)-4-amino-N-((6-(difluoromethoxy)-3-pyridazinyl)methyl)-N-ethyl-3-methyl-1,3-dihydrofuro[3,4-c]quinoline-8-carboxamide], the concentration for half-maximal inhibition (IC50) amounted to 109 nM in assay [1] and 7.52 µM in assay [2].
`Cc1nn(C)c2c1c(N)nc1ccc(C(=O)N(Cc3ccc(C(F)(F)F)cn3)C(C)C)cc12` [Example 432, 4-amino-1,3-dimethyl-N-(2-propanyl)-N-((5-(trifluoromethyl)-2-pyridinyl)methyl)-1H-pyrazolo[4,3-c]quinoline-8-carboxamide]: the half-maximal inhibitory concentration (IC50) was 203 nM in assay [1] and 6.39 µM in assay [2].
In the same order, the values of `C[C@@H]1OCc2c1c(N)nc1cnc(C(=O)N(C3CC3)[C@H](C)c3ccc(C(F)(F)F)cn3)cc21` (single isomer, unassigned) [Example 590] are 2230 nM and greater than 50 µM.
As to `C[C@H](c1ncccn1)N(Cc1ccc(C(F)(F)F)cn1)C(=O)c1ccc2nc(N)c3c(c2c1)COC3` [Example 653, 4-amino-N-((1R)-1-(2-pyrimidinyl)ethyl)-N-((5-(trifluoromethyl)-2-pyridinyl)methyl)-1,3-dihydrofuro[3,4-c]quinoline-8-carboxamide], the IC50 in assay [1] stood at 8 nM; in assay [2], 0.073 µM.
As to `CC1OCc2c1c(N)nc1ccc(C(=O)N(Cc3ccc(C(F)(F)F)cn3)C(C)C)cc21` (stereo not drawn) [Example 931, 4-amino-N-isopropyl-3-methyl-N-((5-(trifluoromethyl)pyridin-2-yl)methyl)-1,3-dihydrofuro[3,4-c]quinoline-8-carboxamide], the IC50 in assay [1] came to 72 nM; in assay [2], 9.6 µM.
Take `C[C@@H](c1ccc(C(F)(F)F)cn1)N(C)C(=O)c1cc2c(cc1F)nc(N)c1cnn(C)c12` (single isomer, unassigned) [Example 603]: the figures for the 50% inhibitory concentration (IC50) in assay [1] and in assay [2] were 276 nM and 11.8 µM, respectively.
Take `C[C@H](c1ncc(F)cn1)N(CCOC(F)(F)F)C(=O)c1cc2c3c(c(N)nc2cc1F)COC3` (single isomer, unassigned) [Example 834]: the IC50 was 817 nM in assay [1] and 19.7 µM in assay [2].

(Values after patent publication US20240101570A1 (AMGEN INC., priority 2020, published 2024).)
